# Assay results from the METLIN SMRT retention time set (Domingo-Almenara et al. 2019).
# Test: gradient 5% acetonitrile 3 min, to 50% in 2 min, to 85% in 15 min, held 3 min, 100 µL/min
# Conditions: column: Zorbax Extend-C18 2.1 x 50 mm; eluents: water / acetonitrile, 0.1% formic acid
# Method in brief: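 Retention times of pure standards were taken from adduct peaks that were selected by computer and manually inspected. Over 3 months, mixtures of ~100 molecules were run by HPLC–quadrupole time-of-flight mass spectrometry in positive and negative ionization mode. The Zorbax Extend-C18 column (2.1 × 50 mm, 1.8 μm) ran at 100 μL/min in water and acetonitrile, each containing 0.1% formic acid, with 40 μL dead volume and 900 μL dwell volume.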
row,RP-LC retention time [s],SMILES
1,984,COc1ccc(-c2ncc3c(n2)CCN(C(=O)Nc2cc(Cl)ccc2C)C3)cc1
2,912,O=C1N(C2CCN(S(=O)(=O)c3cccnc3)CC2)C(c2ccccc2)C12CCCC2 (stereo unspecified)
3,907,COc1ccc(-c2cc3n(n2)CCCN(S(=O)(=O)c2cccc4cccnc24)C3)cc1
4,911,O=C(NCCC1=CCCCC1)C(=O)NCC1OCCCN1S(=O)(=O)c1ccccc1 (stereo unspecified)
5,812,O=C(NCCc1csc(-c2ccccc2)n1)[C@H]1CCCN1C(=O)c1ccc(F)cc1
6,624,COc1ccc(CCNC(=O)CSc2cc(N3CCC(C(=O)NC4CC4)CC3)ncn2)cc1OC
7,842,COc1ccc(NS(=O)(=O)c2cc(-c3noc(C(=O)N4CCCC4)n3)sc2C)cc1OC
8,635,COc1cc(OC)cc(C(=O)NCC(=O)Nc2nc3ccccc3[nH]2)c1
9,719,O=C(c1cccc(Nc2c(-c3ccc(Cl)cc3)nc3cnccn23)c1)N1CCOCC1
10,1080,CCOC(=O)c1c(C)c(C(=O)OCC)n(C)c1C
11,976,Cc1ccccc1-c1nnc(CSc2nnc(NC(=O)c3cccc(F)c3)s2)o1
12,732,CS(=O)(=O)N1CCC(CNC(=O)NC(c2ccccc2)c2ccccc2)CC1
13,729,Cc1ccc(CNC(=O)Cn2ccc3ccc(-c4nnc(C)o4)cc32)o1
14,926,CCc1c(C2CCN(C(=O)Nc3ccc(F)c(Cl)c3)CC2)noc1N
15,787,Cc1cccc(-c2nc(N3CCOCC3)ncc2C(=O)O)c1
16,1160,Cc1cc(C)n(C(=O)COc2ccc(Cl)cc2C)n1
17,960,O=C(Cn1cccc1-c1nnc(-c2ccccc2)o1)Nc1cccc(F)c1
18,1040,Cc1nn(-c2ccccc2)c(C)c1S(=O)(=O)N1CCC(C(=O)N2CCCc3ccccc32)CC1
19,783,CCCNC(=O)C1CCN(S(=O)(=O)c2cc(C(=O)N3CCCCCC3)cs2)CC1
20,943,CCOC(=O)c1nc(NCc2ccccc2OC)c2c(CC)noc2n1
21,1090,COc1ccc(-c2cc(=S)ss2)cc1
22,923,Cc1nn(CC(=O)N2CCCCC2)c(=O)c2c(-n3cccc3)n(-c3ccc(F)cc3)nc12

row,RP-LC retention time [s],SMILES
1,963,COc1ccc(N2CC(c3noc(-c4cc(Cl)ccc4OC)n3)CC2=O)cc1 (stereo unspecified)
2,1060,O=C(CN1C(=O)C(C(=O)N2CCCC2)Sc2ccccc21)NC1CCCCCCC1 (stereo unspecified)
3,1300,O=S(=O)(c1cc(-c2cc(C(F)(F)F)on2)cs1)N(Cc1ccco1)C1CCCCC1
4,1210,CCc1nc2cc(-c3noc(-c4cc(OC)cc(OC)c4)n3)ccc2o1
5,779,COc1ccc(-c2noc(-c3cccn(CC(=O)Nc4ccc(C#N)cc4)c3=O)n2)cc1OC
6,534,Cn1nc2n(c1=O)CCN(C(=O)c1cc(CN3CCOCC3)on1)CC2
7,971,COC(=O)c1cc(S(=O)(=O)N2CCCC2C(=O)Nc2cccc(C(F)(F)F)c2)cn1C (stereo unspecified)
8,910,Cc1cccc(S(=O)(=O)N2CCC3(C2)C(=O)N(C)c2ccccc23)c1 (stereo unspecified)
9,646,CC(=O)NCc1csc(C2CCN(C(=O)COc3ccccc3)CC2)n1
10,792,CC(C)c1noc(-c2ccn3c(CC(=O)NC(C)c4ccc(F)cc4)nnc3c2)n1 (stereo unspecified)
11,632,Cc1nc(-c2ccccc2)nn1C1CCN(S(=O)(=O)c2cn(C)cn2)C1 (stereo unspecified)
12,961,Cc1cccc(NC(=O)Cn2nc(N3CCSCC3)c3ccccc3c2=O)c1
13,786,O=C(Nc1ccccc1F)N1CC(c2nc(CCOCC3CC3)no2)C1
14,852,Cc1csc(-c2cc(S(=O)(=O)NC(C)C)c(C)n2C)n1
15,817,CCc1cc(=O)oc2cc(C)cc(OC(C)C(=O)N3CCC4(O)CCCCC4C3)c12 (stereo unspecified)
16,798,Cc1cc(-c2nnc(NC(=O)c3cnn(-c4ccccc4)c3C)o2)c(C)o1
17,690,CCOC(=O)C(NC(=O)Nc1c(-c2cccc(C)c2)nc2ccccn12)C(C)C (stereo unspecified)
18,1370,COc1ccc(-c2noc(-c3cccnc3N3CCN(c4ccccc4F)CC3)n2)cc1
19,1030,Fc1ccc(OCc2nnc3sc(CCCc4ccccc4)nn23)cc1
20,602,Nc1ccc(C(=O)Nc2ccc(Nc3ccncc3)cc2)cc1
21,844,CCCN(CC1CCOC1)C(=O)c1cc(Cl)ccc1F (stereo unspecified)
22,860,COC(=O)C1=CN(c2ccc(F)c(F)c2)c2cc(F)ccc2S1(=O)=O

row,RP-LC retention time [s],SMILES
1,947,COc1cccc(NC(=O)N2CCCC2c2nc(-c3cccc(OC)c3)no2)c1 (stereo unspecified)
2,770,COc1cccc2cc(C(=O)NCCC(O)C(C)(C)C)oc12 (stereo unspecified)
3,562,O=C(c1ccoc1)N1CCCC(c2nnc3n2CCN(C2CCCC2)C3)C1 (stereo unspecified)
4,904,CCCNC(=O)Cc1csc(-n2nc(C)c(Cl)c2C)n1
5,619,CN(C)CCNC(=O)CN1C(=O)C2CCCCN2c2ccc(C(=O)N3CCCCC3)cc21 (stereo unspecified)
6,1170,Cc1nn(-c2nc(-c3ccc(Cl)cc3)cs2)c(C)c1CC(=O)NCc1ccccc1
7,613,Cn1c(=O)c2c(ncn2CC(=O)N2CCCC(c3nc(C4CCOCC4)no3)C2)n(C)c1=O (stereo unspecified)
8,1010,CCn1nccc1C(=O)Nc1ccc(-c2nnc3n2CCCC3)cc1
9,838,Cc1nc(-c2noc(-c3ccccc3)n2)cn1CC(=O)NCc1ccc(F)cc1F
10,611,COc1ccccc1-c1noc(C2CCCN2C(=O)CSc2ccncc2)n1 (stereo unspecified)
11,657,O=C(CCC1CCCN(S(=O)(=O)c2ccccc2)C1)N1CCN(c2ccccn2)CC1 (stereo unspecified)
12,866,COc1ccc(S(=O)(=O)NCCc2c[nH]c3ccc(F)cc23)cc1
13,611,Nc1nc(N2CCOCC2)ncc1C(=O)Nc1ccccc1
14,629,COc1cc(Cl)c(NC(=O)C2CCN(C(=O)c3cc(-c4ccncc4)n[nH]3)CC2)c(OC)c1
15,998,O=C(c1cccs1)N1CCN(S(=O)(=O)c2cc(-c3noc(C4CCC4)n3)cs2)CC1
16,1110,Cc1cccc(N2CCN(c3ccc4cc(S(=O)(=O)N5CCCCC5)ccc4n3)CC2C)c1 (stereo unspecified)
17,855,COc1cccc(CC(=O)Nc2ccc3c(c2)Sc2ncccc2C(=O)N3C(C)C)c1
18,762,Cc1ccccc1C(=O)NCCCn1cccc1
19,829,COc1ccc(OC)c(NC(=O)C2c3ccccc3C(=O)N3CCc4cc(OC)c(OC)cc4C23)c1 (stereo unspecified)
20,923,O=C(c1cc(-c2ccco2)on1)N1CCCC(c2nnc(-c3ccccc3F)s2)C1 (stereo unspecified)

row,SMILES,RP-LC retention time [s]
1,COc1ccc2c(c1)C1(CCN(S(=O)(=O)c3c(C)noc3C)C1)C(=O)N2C (stereo unspecified),877
2,CN(C)c1nc2cc(C(=O)N3CCC4(CC3)OCCO4)sc2n1-c1ccccc1,647
